In ChEMBL document CHEMBL5137069, “Discovery of Potent and Orally Bioavailable Pyridine N-Oxide-Based Factor XIa Inhibitors through Exploiting Nonclassical Interactions” (J Med Chem, 2022):
≈ marks a conversion by molar mass, not a printed value.

Legend:
[1] = Stability in human liver microsomes assessed as half-life; assay type: ADME, Microsome
[2] = Stability in rat liver microsomes assessed as half-life; assay type: ADME, Microsome
[3] = Oral bioavailability in Sprague-Dawley rat at 10 mg/kg administered as PEG-400/water/EtOH (7:2:1) formulation; assay type: ADME, organism-based; conditions: in vivo
[4] = Oral bioavailability in Sprague-Dawley rat at 10 mg/kg administered as 20% HPbCD formulation; assay type: ADME, organism-based; conditions: in vivo
[5] = Oral bioavailability in Cynomolgus monkey at 5 mg/kg; assay type: ADME, organism-based, Macaca fascicularis; conditions: in vivo
[6] = Drug concentration in plasma of anesthetized New Zealand White rabbit model of AV shunt-induced thrombosis at […], administered as iv bolus dose and subsequently followed by 0.8 mg/kg/hr as iv infusion from 20 min prior to 40 min after establishment of AV shunt by LC-MS/MS analysis; assay type: ADME, organism-based, Oryctolagus cuniculus; conditions: time 60 min
[7] = AUC in Beagle dog at 5 mg/kg, po; assay type: ADME, organism-based, Canis lupus familiaris; design: dose 5 mg/kg, route po; conditions: in vivo
[8] = Clearance in Beagle dog assessed as liver blood flow at 5 mg/kg, po and 1 mg/kg, iv; assay type: ADME, organism-based, Canis lupus familiaris; conditions: in vivo
[9] = Equilibrium solubility of compound at pH 6.8 by HPLC analysis; assay type: physicochemical; conditions: buffer
[10] = Half-life in Cynomolgus monkey at 5 mg/kg, po and 1 mg/kg, iv; assay type: ADME, organism-based, Macaca fascicularis; conditions: in vivo
[11] = Half-life in Sprague-Dawley rat at 10 mg/kg, po and 2 mg/kg, iv; assay type: ADME, organism-based; conditions: in vivo
[12] = Volume of distribution at steady state in Sprague-Dawley rat at 10 mg/kg, po and 2 mg/kg, iv; assay type: ADME, organism-based; conditions: in vivo
[13] = Hal-life in Beagle dog at 5 mg/kg, po and 1 mg/kg, iv; assay type: ADME, organism-based, Canis lupus familiaris; conditions: in vivo
[14] = AUC in Sprague-Dawley rat at 2 mg/kg, iv; assay type: ADME, organism-based; design: dose 2 mg/kg, route iv; conditions: in vivo
[15] = AUC in Beagle dog at 1 mg/kg, iv; assay type: ADME, organism-based, Canis lupus familiaris; design: dose 1 mg/kg, route iv; conditions: in vivo
[16] = AUC in Sprague-Dawley rat at 10 mg/kg, po; assay type: ADME, organism-based; design: dose 10 mg/kg, route po; conditions: in vivo
[17] = Clearance in Cynomolgus monkey assessed as liver blood flow at 5 mg/kg, po and 1 mg/kg, iv; assay type: ADME, organism-based, Macaca fascicularis; conditions: in vivo
[18] = Oral Bioavailability in Sprague-Dawley rat at 10 mg/kg; assay type: ADME, organism-based; conditions: in vivo
[19] = AUC in Cynomolgus monkey at 1 mg/kg, iv; assay type: ADME, organism-based, Macaca fascicularis; design: dose 1 mg/kg, route iv; conditions: in vivo
[20] = Drug concentration in plasma of anesthetized New Zealand White rabbit model of AV shunt-induced thrombosis at 8.5 mg/kg, administered as iv bolus dose and subsequently followed by 10 mg/kg/hr as iv infusion from 20 min prior to 40 min after establishment of AV shunt by LC-MS/MS analysis; assay type: ADME, organism-based, Oryctolagus cuniculus; conditions: time 60 min
[21] = Volume of distribution at steady state in Beagle dog at 5 mg/kg, po and 1 mg/kg, iv; assay type: ADME, organism-based, Canis lupus familiaris; conditions: in vivo
[22] = Clearance in Sprague-Dawley rat assessed as liver blood flow at 10 mg/kg, po and 2 mg/kg, iv; assay type: ADME, organism-based; conditions: in vivo
[23] = Equilibrium solubility of compound at pH 1.2 by HPLC analysis; assay type: physicochemical; conditions: buffer
[24] = Oral bioavailability in Beagle dog at 5 mg/kg; assay type: ADME, organism-based, Canis lupus familiaris; conditions: in vivo
[25] = Volume of distribution at steady state in Cynomolgus monkey at 5 mg/kg, po and 1 mg/kg, iv; assay type: ADME, organism-based, Macaca fascicularis; conditions: in vivo
[26] = AUC in Cynomolgus monkey at 5 mg/kg, po; assay type: ADME, organism-based, Macaca fascicularis; design: dose 5 mg/kg, route po; conditions: in vivo

A half-life [1] of 0.183 h and a half-life [2] of 0.3 h were found for Cc1ncsc1-c1cnn(C(CC2CC2)c2ccc(-c3c(-n4cnnn4)ccc(Cl)c3F)c[n+]2[O-])c1 (racemic) in this work.
A half-life [1] of 2.83 h and a half-life [2] of 0.833 h were found for COCC[C@H](c1ccc(-c2c(-n3cnnn3)ccc(Cl)c2F)c[n+]1[O-])n1cc(-c2cnnn2C)cn1 in this work.
A half-life [1] of 0.9 h and a half-life [2] of 0.783 h were found for COCC[C@H](c1ccc(-c2c(-n3cc(Cl)nn3)ccc(Cl)c2F)c[n+]1[O-])n1cc(-c2cnnn2C)cn1 in this work.
A bioavailability [3] of 59.6% was found for COC(=O)Nc1ccc(-c2cnn([C@H](CC3CC3)c3ccc(-c4c(-n5cnnn5)ccc(Cl)c4F)c[n+]3[O-])c2)cc1 in this work.
A half-life [1] of over 3.08 h and a half-life [2] of 2.33 h were found for Cn1nncc1-c1cnn([C@H](Cc2ccn(C(F)F)n2)c2ccc(-c3c(-n4cc(C(F)(F)F)nn4)ccc(Cl)c3F)c[n+]2[O-])c1 in this work.
A half-life [1] of 0.0333 h and a half-life [2] of 0.0333 h were found for [O-][n+]1cc(-c2c(-n3cnnn3)ccc(Cl)c2F)ccc1C(CC1CC1)n1cc(-c2c(F)cncc2Cl)cn1 (racemic) in this work.
A half-life [1] of over 3 h and a half-life [2] of over 3 h were found for Nc1ccc(-c2cnn(C(CC3CC3)c3ccc(-c4c(-n5cnnn5)ccc(Cl)c4F)c[n+]3[O-])c2)c(F)n1 (racemic) in this work.
A half-life [1] of 0.05 h and a half-life [2] of 0.117 h were found for [O-][n+]1cc(-c2c(-n3cnnn3)ccc(Cl)c2F)ccc1C(CC1CC1)n1cc(-c2cncs2)cn1 (racemic) in this work.
A half-life [1] of 0.6 h and a half-life [2] of 1.07 h were found for Cn1cncc1-c1cnn([C@H](CC2CC2)c2ccc(-c3c(-n4cnnn4)ccc(Cl)c3F)c[n+]2[O-])c1 in this work.
A half-life [1] of over 3.08 h and a half-life [2] of over 3.08 h were found for Cn1nncc1-c1cnn([C@H](CCOC(F)F)c2ccc(-c3c(-n4cnnn4)ccc(Cl)c3F)c[n+]2[O-])c1 in this work.
A half-life [1] of over 3.08 h and a half-life [2] of 1.47 h were found for Cn1nncc1-c1cnn([C@H](Cn2cc(F)cn2)c2ccc(-c3c(-n4cc(Cl)nn4)ccc(Cl)c3F)c[n+]2[O-])c1 in this work.
A half-life [1] of 0.267 h and a half-life [2] of 0.45 h were found for Cn1nccc1-c1cnn(C(CC2CC2)c2ccc(-c3c(-n4cnnn4)ccc(Cl)c3F)c[n+]2[O-])c1 (racemic) in this work.
A half-life [1] of 1.47 h and a half-life [2] of 1.28 h were found for Cn1nncc1-c1cnn([C@H](Cc2ccc(F)cc2)c2ccc(-c3c(-n4cc(Cl)nn4)ccc(Cl)c3F)c[n+]2[O-])c1 in this work.
A bioavailability [4] of 37.3% was found for COC(=O)Nc1ccc(-c2cnn(C(CC3CC3)c3ccc(-c4cc(Cl)ccc4-n4cnnn4)c[n+]3[O-])c2)cc1 (racemic) in this work.
A bioavailability [5] of 43%, a concentration at 1 h [6] of 1.08 µM and an AUC [7] of 14.7 µM·h were found for Cn1nncc1-c1cnn([C@H](CCOC(F)F)c2ccc(-c3c(-n4cc(Cl)nn4)ccc(Cl)c3F)c[n+]2[O-])c1 in this work. It also gave an LBF [8] of 25%, a solubility thermodynamic [9] of 172 µM (≈ 99.6 µg/mL) and a half-life [10] of 1 h. It also gave a half-life [11] of 1.4 h, a Vdss [12] of 0.8 L/kg and a half-life [13] of 2 h. It also gave an AUC [14] of 5.5 µM·h, an AUC [15] of 3.7 µM·h and an AUC [16] of 10 µM·h. For the same molecule, the LBF [17] was 58%, the bioavailability [18] was 36.4% and the AUC [19] was 1.1 µM·h. It also gave a half-life [1] of over 3.08 h, a concentration at 1 h [20] of 7.5 µM and a Vdss [21] of 1.5 L/kg. For the same molecule, the half-life [2] was over 3.08 h, the LBF [22] was 12% and the solubility thermodynamic [23] was 81 µM (≈ 47 µg/mL). The bioavailability [24] was 80.5%, the Vdss [25] was 1.5 L/kg and the AUC [26] was 2.5 µM·h.
A half-life [1] of over 3.08 h and a half-life [2] of 2.42 h were found for Cn1nncc1-c1cnn([C@H](CCOC(F)F)c2ccc(-c3c(-n4cc(C(F)(F)F)nn4)ccc(Cl)c3F)c[n+]2[O-])c1 in this work.
A half-life [1] of over 3 h and a half-life [2] of over 3 h were found for Cn1nncc1-c1cnn([C@H](CC2CC2)c2ccc(-c3c(-n4cnnn4)ccc(Cl)c3F)c[n+]2[O-])c1 in this work.
A half-life [1] of 1.67 h and a half-life [2] of 1.8 h were found for Cc1nc(N)ccc1-c1cnn(C(CC2CC2)c2ccc(-c3c(-n4cnnn4)ccc(Cl)c3F)c[n+]2[O-])c1 (racemic) in this work.
A half-life [1] of over 3.08 h and a half-life [2] of 0.8 h were found for Cn1nncc1-c1cnn([C@H](Cc2ccc(F)cc2)c2ccc(-c3c(-n4cnnn4)ccc(Cl)c3F)c[n+]2[O-])c1 in this work.
